Data taken from patent publication US12643899B2, “Antiviral agents, uses thereof and methods for their preparation” (The University of British Columbia, priority 2020, dated 2026).

Columns and labels:
Experiment in all cases: microbe, parasite or virus in culture
Assay type in all cases: cell-based
[1] = tested on: SARS-CoV-2 Wuhan strain from VIDO (SB); settings: Severe acute respiratory syndrome coronavirus 2, Calu-3
[2] = tested on: SARS-CoV-2 South Africa (501Y.V2); settings: Severe acute respiratory syndrome coronavirus 2, Calu-3
[3] = tested on: SARS-CoV-2 England (VOC 202012/01)
SARS-CoV-2 Nigeria (484) = settings: Severe acute respiratory syndrome coronavirus 2, Calu-3

Compound `COc1c2n(c3ccccc13)[C@]1(O)C(=O)N(C)C(=O)[C@]1(O)c1c-2[nH]c2ccc(Cl)cc12` [CA, (11S,15R)-7-chloro-11,15-dihydroxy-23-methoxy-13-methyl-3,13,16-triazahexacyclo[14.7.0.0^2,10.0^4,9.0^11,15.0^17,22]tricosa-1(23),2(10),4(9),5,7,17,19,21-octaene-12,14-dione] has an IC50 [1] of 57.7 nM, an IC50 [2] of 12.2 nM and an IC50 ([3]; Severe acute respiratory syndrome coronavirus 2, Calu-3) of 0.801 nM. It also gave an EC50 ([3]; Severe acute respiratory syndrome coronavirus 2, Calu-3, read-out: ED50) of roughly 0.8 nM and an IC50 (SARS-CoV-2 Nigeria (484)) of 12.2 nM.
